These compounds were tested on NCIH929.1 cells (assay: Cell viability assay for Table 2 (CellTiter-Glo 2.0, ATP quantification, 96 hr)). Conditions: 96 h.
Format: cell-based
Excerpt: Cell Viability Assay for Table 2
CellTiter-Glo® 2.0 Assay was purchased from Promega (Madison, Wis., USA). NCIH929.1 cell line was purchased from ATCC (Manassas, Va., USA). Cell culture flasks and 384-well microplates were acquired from VWR (Radnor, Pa., USA).

SMILES	IC50 [nM]
O=C1CCC(N2C(=O)c3cccc4c(Cc5cn(C6CCN(CC7(C(F)(F)F)CC7)CC6)nc5Cl)ccc2c34)C(=O)N1 (centres unmarked) [Compound 201, 3-[6-[[3-chloro-1-[1-[[1-(trifluoromethyl)cyclopropyl]methyl]-4-piperidyl]pyrazol-4-yl]methyl]-2-oxo-benzo[cd]indol-1-yl]piperidine-2,6-dione]	< 1

Same assay, conditions: 96 h, NCIH929.1 cell viability, 96 hr, top concentration 1 μM, 14 points half log titration; read-out: IC50

SMILES	IC50 [nM]
CC1(CN2CCN(c3ccc(Cc4ccc5c6c(cccc46)C(=O)N5C4CCC(=O)NC4=O)cc3)CC2)CCC1 (centres unmarked) [Compound 168, 3-[6-[[4-[4-[(1-methylcyclobutyl)methyl]piperazin-1-yl]phenyl]methyl]-2-oxo-benzo[cd]indol-1-yl]piperidine-2,6-dione]	< 1
CC1(C(=O)N2CCC(c3ccc(Cc4ccc5c6c(cccc46)C(=O)N5C4CCC(=O)NC4=O)cc3)CC2)CCC1 (centres unmarked) [Compound 169, 3-[6-[[4-[1-(1-methylcyclobutanecarbonyl)-4-piperidyl]phenyl]methyl]-2-oxo-benzo[cd]indol-1-yl]piperidine-2,6-dione]	< 1
CC1(CN2CCC(c3ccc(Cc4ccc5c6c(cccc46)C(=O)N5C4CCC(=O)NC4=O)cc3)CC2)CCC1 (centres unmarked) [Compound 170, 3-[6-[[4-[1-[(1-methylcyclobutyl)methyl]-4-piperidyl]phenyl]methyl]-2-oxo-benzo[cd]indol-1-yl]piperidine-2,6-dione]	< 1
N#Cc1ccc(N2CCC(Oc3ccc(Cc4ccc5c6c(cccc46)C(=O)N5C4CCC(=O)NC4=O)cc3)CC2)c(F)c1 (centres unmarked) [Compound 171, 4-[4-[4-[[1-(2,6-dioxo-3-piperidyl)-2-oxo-benzo[cd]indol-6-yl]methyl]phenoxy]-1-piperidyl]-3-fluoro-benzonitrile]	< 1
N#Cc1ccc(N2CCN(Cc3ccc(Cc4ccc5c6c(cccc46)C(=O)N5C4CCC(=O)NC4=O)cc3)C(=O)C2)c(F)c1 (centres unmarked) [Compound 172, 4-[4-[[4-[[1-(2,6-dioxo-3-piperidyl)-2-oxo-benzo[cd]indol-6-yl]methyl]phenyl]methyl]-3-oxo-piperazin-1-yl]-3-fluoro-benzonitrile]	< 1
CC1(C(=O)N2CCC(n3cc(Sc4ccc5c6c(cccc46)C(=O)N5C4CCC(=O)NC4=O)cn3)CC2)CCC1 (centres unmarked) [Compound 174, 3-[6-[1-[1-(1-methylcyclobutanecarbonyl)-4-piperidyl]pyrazol-4-yl]sulfanyl-2-oxo-benzo[cd]indol-1-yl]piperidine-2,6-dione]	< 1
CC1(C(=O)N2CCC(n3cc(S(=O)(=O)c4ccc5c6c(cccc46)C(=O)N5C4CCC(=O)NC4=O)cn3)CC2)CCC1 (centres unmarked) [Compound 175, 3-[6-[1-[1-(1-methylcyclobutanecarbonyl)-4-piperidyl]pyrazol-4-yl]sulfonyl-2-oxo-benzo[cd]indol-1-yl]piperidine-2,6-dione]	< 100
O=C1CCC(N2C(=O)c3cccc4c(Cc5cnn(C6CC(OCc7ccccc7)C6)c5)ccc2c34)C(=O)N1 (centres unmarked) [Compound 177, 3-[6-[[1-(3-benzyloxycyclobutyl)pyrazol-4-yl]methyl]-2-oxo-benzo[cd]indol-1-yl]piperidine-2,6-dione]	< 100
CC1(C(=O)N2CCC(c3ccn(Cc4ccc5c6c(cccc46)C(=O)N5C4CCC(=O)NC4=O)n3)CC2)CCC1 (centres unmarked) [Compound 180, 3-[6-[[3-[1-(1-methylcyclobutanecarbonyl)-4-piperidyl]pyrazol-1-yl]methyl]-2-oxo-benzo[cd]indol-1-yl]piperidine-2,6-dione]	< 1
CC1(C(=O)N2CCC(N3CCN(Cc4ccc5c6c(cccc46)C(=O)N5C4CCC(=O)NC4=O)C3=O)CC2)CCC1 (centres unmarked) [Compound 181, 3-[6-[[3-[1-(1-methylcyclobutanecarbonyl)-4-piperidyl]-2-oxo-imidazolidin-1-yl]methyl]-2-oxo-benzo[cd]indol-1-yl]piperidine-2,6-dione]	< 1
O=C1CCC(N2C(=O)c3cccc4c(Cc5ccc(CN6CCN(c7ccccc7F)CC6)cc5)ccc2c34)C(=O)N1 (centres unmarked) [Compound 188, 3-[6-[[4-[[4-(2-fluorophenyl)piperazin-1-yl]methyl]phenyl]methyl]-2-oxo-benzo[cd]indol-1-yl]piperidine-2,6-dione]	< 1
CC1(CN2CCC(n3cc(Cc4ccc5c6c(cccc46)C(=O)N5C4CCC(=O)NC4=O)cn3)(C(F)(F)F)CC2)CCC1 (centres unmarked) [Compound 191, 3-[6-[[1-[1-[(1-methylcyclobutyl)methyl]-4-(trifluoromethyl)-4-piperidyl]pyrazol-4-yl]methyl]-2-oxo-benzo[cd]indol-1-yl]piperidine-2,6-dione]	< 1
CC1(C(=O)N2CCC(n3cc(Cc4ccc5c6c(cccc46)C(=O)N5C4CCC(=O)NC4=O)nn3)CC2)CCC1 (centres unmarked) [Compound 192, 3-[6-[[1-[1-(1-methylcyclobutanecarbonyl)-4-piperidyl]triazol-4-yl]methyl]-2-oxo-benzo[cd]indol-1-yl]piperidine-2,6-dione]	< 1
CC1(CN2CCC(C#N)(n3cc(Cc4ccc5c6c(cccc46)C(=O)N5C4CCC(=O)NC4=O)cn3)CC2)CCC1 (centres unmarked) [Compound 193, 4-[4-[[1-(2,6-dioxo-3-piperidyl)-2-oxo-benzo[cd]indol-6-yl]methyl]pyrazol-1-yl]-1-[(1-methylcyclobutyl)methyl]piperidine-4-carbonitrile]	< 1
NCC1(n2cc(Cc3ccc4c5c(cccc35)C(=O)N4C3CCC(=O)NC3=O)cn2)CCN(C(=O)C2(C(F)(F)F)CC2)CC1 (centres unmarked) [Compound 194, 3-[6-[[1-[4-(aminomethyl)-1-[1-(trifluoromethyl)cyclopropanecarbonyl]-4-piperidyl]pyrazol-4-yl]methyl]-2-oxo-benzo[cd]indol-1-yl]piperidine-2,6-dione]	< 100
O=C1CCC(N2C(=O)c3cccc4c(Cc5cnn(C6(CO)CCN(C(=O)C7(C(F)(F)F)CC7)CC6)c5)ccc2c34)C(=O)N1 (centres unmarked) [Compound 195, 3-[6-[[1-[4-(hydroxymethyl)-1-[1-(trifluoromethyl)cyclopropanecarbonyl]-4-piperidyl]pyrazol-4-yl]methyl]-2-oxo-benzo[cd]indol-1-yl]piperidine-2,6-dione]	< 1
N#Cc1ccc(N2CCN(C(=O)c3ccc(Cc4ccc5c6c(cccc46)C(=O)N5C4CCC(=O)NC4=O)cc3)CC2)c(F)c1 (centres unmarked) [Compound 196, 4-[4-[4-[[1-(2,6-dioxo-3-piperidyl)-2-oxo-benzo[cd]indol-6-yl]methyl]benzoyl]piperazin-1-yl]-3-fluoro-benzonitrile]	< 1
O=C1CCC(N2C(=O)c3cccc4c(Cc5ccc(CN6CCOCC6=O)cc5)ccc2c34)C(=O)N1 (centres unmarked) [Compound 197, 3-[2-oxo-6-[[4-[(3-oxomorpholin-4-yl)methyl]phenyl]methyl]benzo[cd]indol-1-yl]piperidine-2,6-dione]	< 1
CC1(n2cc(Cc3ccc4c5c(cccc35)C(=O)N4C3CCC(=O)NC3=O)cn2)CCCCC1 (centres unmarked) [Compound 198, 3-[6-[[1-(1-methylcyclohexyl)pyrazol-4-yl]methyl]-2-oxo-benzo[cd]indol-1-yl]piperidine-2,6-dione]	< 1
N#CC1(CN2CCC(n3cc(Cc4ccc5c6c(cccc46)C(=O)N5C4CCC(=O)NC4=O)cn3)CC2)CC1 (centres unmarked) [Compound 199, 1-[[4-[4-[[1-(2,6-dioxo-3-piperidyl)-2-oxo-benzo[cd]indol-6-yl]methyl]pyrazol-1-yl]-1-piperidyl]methyl]cyclopropanecarbonitrile]	< 1
CC1(CN2CCC(n3cc(Cc4ccc5c6c(cccc46)C(=O)N5C4CCC(=O)NC4=O)c(Cl)n3)CC2)CCC1 (centres unmarked) [Compound 200, 3-[6-[[3-chloro-1-[1-[(1-methylcyclobutyl)methyl]-4-piperidyl]pyrazol-4-yl]methyl]-2-oxo-benzo[cd]indol-1-yl]piperidine-2,6-dione]	< 1
O=C1CCC(N2C(=O)c3cccc4c(Cc5ccc(CN6CCN(S(=O)(=O)c7ccc(F)cc7)CC6)cc5)ccc2c34)C(=O)N1 (centres unmarked) [Compound 202, 3-[6-[[4-[[4-(4-fluorophenyl)sulfonylpiperazin-1-yl]methyl]phenyl]methyl]-2-oxo-benzoindol-1-yl]piperidine-2,6-dione]	< 1
O=C1CCC(N2C(=O)c3cccc4c(Cc5ccc(CC6CCN(c7ccc(F)cc7)CC6)cc5)ccc2c34)C(=O)N1 (centres unmarked) [Compound 203, 3-[6-[[4-[[1-(4-fluorophenyl)-4-piperidyl]methyl]phenyl]methyl]-2-oxo-benzo[cd]indol-1-yl]piperidine-2,6-dione]	< 1
O=C1CCC(N2C(=O)c3cccc4c(Cc5cnn(C6CCN(C(=O)C7(CO)CCC7)CC6)c5)ccc2c34)C(=O)N1 (centres unmarked) [Compound 205, 3-[6-[[1-[1-[1-(hydroxymethyl)cyclobutanecarbonyl]-4-piperidyl]pyrazol-4-yl]methyl]-2-oxo-benzo[cd]indol-1-yl]piperidine-2,6-dione]	< 1
CC1(CN2CCC(n3nc(Cl)cc3Cc3ccc4c5c(cccc35)C(=O)N4C3CCC(=O)NC3=O)CC2)CCC1 (centres unmarked) [Compound 206, 3-[6-[[5-chloro-2-[1-[(1-methylcyclobutyl)methyl]-4-piperidyl]pyrazol-3-yl]methyl]-2-oxo-benzo[cd]indol-1-yl]piperidine-2,6-dione]	< 1
N#Cc1ccc(N2CCN(Cc3ccn(Cc4ccc5c6c(cccc46)C(=O)N5C4CCC(=O)NC4=O)n3)CC2)c(F)c1 (centres unmarked) [Compound 208, 4-(4-((1-((1-(2,6-dioxopiperidin-3-yl)-2-oxo-1,2-dihydrobenzo[cd]indol-6-yl)methyl)-1-H-pyrazol-3-yl)methyl)piperazin-1-yl)-3-fluorobenzonitrile]	< 1
N#Cc1ccc(N2CCN(Cc3ccnn3Cc3ccc4c5c(cccc35)C(=O)N4C3CCC(=O)NC3=O)CC2)c(F)c1 (centres unmarked) [Compound 209, 4-(4-((1-((1-(2,6-dioxopiperidin-3-yl)-2-oxo-1,2-dihydrobenzo[cd]indol-6-yl)methyl)-1-H-pyrazol-5-yl)methyl)piperazin-1-yl)-3-fluorobenzonitrile]	< 100
O=C1CCC(N2C(=O)c3cccc4c(Cc5ccc(CN6CCN(c7ccccc7)CC6)cc5)ccc2c34)C(=O)N1 (centres unmarked) [Compound 210, 3-(2-oxo-6-(4-((4-phenylpiperazin-1-yl)methyl)benzyl)benzo[cd]indol-1(2H)-yl)piperidine-2,6-dione]	< 1
